Results as given in US12433857B2, “Conjugate and cancer therapeutic agent” (Tokyo Institute of Technology, priority 2019, dated 2025).
Entries after “also recorded” stand apart in the source; their conditions may differ. Counter-ions that a name gives are not always drawn.

Assays:
DLD-1 cells [1] = experiment: Cell cycle analysis by propidium iodide staining; format: cell-based, human; details: 72 hours
Experimental: The cell cycle was analyzed by propidium iodide (PI) staining to investigate the mechanism of cancer cell proliferation suppression of DFO and PEG-P[Asp(DFO)m]n.
[Preparation of DFO Solution and PEG-P[Asp(DFO)10]35 Solution] • DFO/D-PBS solution: 45.0 μM • PEG-P[Asp(DFO)10]35/D-PBS solution: 61.0 μM (DFO concentration=600 μM)
DLD-1 cells were seeded on a 6-well plate at 2.0×10^5 cells/well and pre-cultured at 37° C. under 5% CO2 for 24 hours. The prepared solution described above was diluted 10-fold with RPMI, and then 3 mL was added to each well followed by incubating for 72 hours. After washing with 3 mL of D-PBS, 700 μL of a Trypsin-EDTA solution was added thereto followed by incubating for 10 min. After confirming that the cells had been peeled off under an optical microscope, 700 μL of D-PBS containing 10% FBS was added thereto, and the cells were sufficiently suspended. The suspension was centrifuged at 1,200 rpm for 3 min to remove the supernatant. 500 μL of D-PBS was added to the cell pellet, which was subsequently suspended. The suspension was dropwise added to 4.5 mL of 70% ethanol and fixed in a −20° C. freezer overnight. […] Finally, the suspension was filtered through a cell strainer, and the fluorescence of propidium iodide was measured using FCM. The measured data were analyzed by ModFit LT. […]

DLD-1 cells [2] = experiment: Cell proliferation suppressive action by CCK-8 assay; format: cell-based, human; details: 72 hours, CCK-8, absorbance at 450 nm
Experimental: The cancer cell proliferation suppressive action of PEG-P[Asp(DFO)m]n was evaluated by CCK-8 assay.
[Preparation of DFO Solution, PEG-P[Asp(DFO)10]35 Solution, and PEG-P[Asp(DFO)26]78 Solution] • DFO/D-PBS solution: 3.00 mM • PEG-P[Asp(DFO)10]35/D-PBS solution: 0.305 mM (DFO concentration=3.00 mM) • PEG-P[Asp(DFO)26]78/D-PBS solution: 0.118 mM (DFO concentration=3.00 mM)
DLD-1 cells were seeded on a 96-well plate at 1.0×10^3 cells/well and pre-cultured at 37° C. under 5% CO2 for 24 hours. 10 μL of the prepared solution described above was added to each well followed by incubating for 72 hours. 10 μL of CCK-8 solution was added to each well, and after incubating for 2 hours, the absorbance at 450 nm was measured. The results are shown as the value of mean±S.D. (n=5), and a statistically significant difference was evaluated by the t-test (****p<0.0001).

[3] = Pharmacokinetics (blood retention, tumor accumulation) in subcutaneous CT26 tumor mouse model; format: in vivo; details: intravenous
Experimental: To evaluate the blood retention and the tumor accumulation of DFO and PEG-P[Asp(DFO)m]n), a DFO/Ga (III) complex and a PEG-P[Asp(DFO)m]n/Ga (III) complex were intravenously injected into the subcutaneous CT26 tumor mouse model, and the Ga contents in the blood and the tumor after a predetermined period of time were measured by ICP-MS.
300 μL of a 26.8 mM GaCl3/D-PBS solution was added to 2.70 mL of a 16.9 mM DFO/D-PBS solution, and the resultant solution was stirred overnight. The pH was adjusted to 7.4 with NaOH, and then the solution was filtered through a filter.
300 μL of 26.8 mM GaCl3/D-PBS solution was added to 2.70 mL of a 1.71 mM PEG-P[Asp(DFO)10]35/D-PBS solution (DFO concentration=16.9 mM), and the resultant solution was stirred overnight. The reaction solution was placed in an ultrafiltration membrane (MWCO=10 kD) and subjected to ultrafiltration five times. 3 mL of D-PBS was added to the purified solution, and the resultant solution was filtered through a filter. […]
100 μl of the prepared solution described above was intravenously administered (DFO: […]) to the tail vein of a model mouse of which the tumor size reached about 200 mm^3. […] After filling up to 10 mL with pure water and filtration with a hydrophobic filter, the gallium contents of the blood and the various organs were measured by ICP-MS. […]

DLD-1 cells [4] = experiment: Free iron in the cytoplasm detected with FerroOrange; format: cell-based, human; details: 2.00 mM DFO-concentration solution diluted 10-fold, 24 hours
Experimental: To investigate whether DFO and PEG-P[Asp(DFO)m]n would decrease free iron in the cytoplasm, the free iron in the cytoplasm of cells treated with DFO and PEG-P[Asp(DFO)m]n was detected with FerroOrange.
[Preparation of DFO Solution and PEG-P[Asp(DFO)10]35 Solution] • DFO/D-PBS solution: 2.00 mM • PEG-P[Asp(DFO)10]35/D-PBS solution: […] (DFO concentration=2.00 mM) [Observation with Confocal Microscope]
DLD-1 cells were seeded on 35 mm^2 glass base dishes at 3.0×10^5 cells/well and pre-cultured at 37° C. under 5% CO2 for 24 hours. After removing the solution, 2 mL of the prepared solution described above, diluted 10-fold with RPMI, was added to each dish followed by incubating for 24 hours. After washing with 2 mL of serum-free RPMI, 1 mL of serum-free RPMI containing […] FerroOrange was added thereto followed by incubating in a dark place for 30 min. Thereafter, the fluorescence of FerroOrange was observed by CLSM.
DLD-1 cells were seeded on a 96-well plate at 1.0×10^4 cells/well and pre-cultured at 37° C. under 5% CO2 for 24 hours. After removing the solution, 100 μL of the prepared solution described above, diluted 10-fold with RPMI, was added to each well followed by incubating for 24 hours. […] Then, the fluorescence intensity of FerroOrange was measured with a plate reader. […] The statistical significance was evaluated by Tukey's multiple comparison test (****p<0.0001).

DLD-1 cells [5] = experiment: DNA synthesis inhibition by BrdU staining; format: cell-based, human; details: 72 hours
Experimental: To investigate the mechanism of cell cycle arrest in the S phase by DFO and PEG-P[Asp(DFO)m]n, DNA synthesis inhibition was evaluated by BrdU staining.
[Preparation of DFO Solution and PEG-P[Asp(DFO)10]35 Solution] • DFO/D-PBS solution: 450 μM • PEG-P[Asp(DFO)10]35/D-PBS solution: […] (DFO concentration=600 μM) [Observation with Confocal Microscope]
DLD-1 cells were seeded on 35 mm^2 glass base dishes at 1.0×10^5 cells/well and pre-cultured at 37° C. under 5% CO2 for 24 hours. After removing the solution, 3 mL of the prepared solution described above, diluted 10-fold with RPMI, was added to each well followed by incubating for 72 hours. Then, 330 μL of a 10 mM BrdU/D-PBS solution was added thereto followed by incubating for 1 hour. After removing the solution, 1 mL of 1.0 M HCl solution was added thereto followed by incubating for 10 min. After removing the solution, 1 mL of a 0.1 M sodium tetraborate buffer (pH 8.5) was added thereto followed by incubating for 30 min. […]
DLD-1 cells were seeded on a 6-well plate at 2.0×10^5 cells/well and pre-cultured at 37° C. under 5% CO2 for 24 hours. […] The number of cells was measured, and the cells in each sample were made to the same number. […] Finally, the suspension was filtered through a cell strainer, and the fluorescence of BrdU was measured using FCM.

DLD-1 cells [6] = experiment: Apoptosis induction by PI staining and Annexin V staining; format: cell-based, human; details: 1.00 mM DFO-concentration solution diluted 10-fold, 24 hours
Experimental: In order to investigate whether DFO and PEG-P[Asp(DFO)m]n would induce apoptosis, apoptotic cells were detected by PI staining and Annexin V staining.
[Preparation of DFO Solution and PEG-P[Asp(DFO)10]35 Solution] • DFO/D-PBS solution: 1.00 mM • PEG-P[Asp(DFO)10]35/D-PBS solution: 100 μM (DFO concentration=1.00 mM)
DLD-1 cells were seeded on a 6-well plate at 1.0×10^5 cells/well and pre-cultured at 37° C. under 5% CO2 for 24 hours. After removing the solution, 3 mL of the prepared solution described above, diluted 10-fold with RPMI, was added to each well followed by incubating for 24 hours. After washing with 3 mL of D-PBS, 700 μL of a Trypsin-EDTA solution was added thereto followed by incubating for 10 min. After confirming that the cells had peeled off under an optical microscope, 700 μL of RPMI was added and suspended sufficiently. The suspension was centrifuged at 1,200 rpm for 3 min to remove the supernatant. 500 μL of RPMI was added, the number of cells was measured, and the cells in each sample were made to the same number. The suspension was centrifuged at 1,200 rpm for 3 min to remove the supernatant. […] After adding 400 μL of the binding buffer, the suspension was filtered through a cell strainer, and the fluorescence of PI and Annexin V was measured using FCM. […] The statistical significance was evaluated by Tukey's multiple comparison test (**** p<0.0001).

[7] = Non-Patent Documents 4 to 6; cited from earlier work
[8] = system: various cancer cell lines; details: Non-Patent Documents 1 to 3; cited from earlier work

In the case of `CC(=O)N(O)CCCCCNC(=O)CCC(=O)N(O)CCCCCNC(=O)CCC(=O)N(O)CCCCCN` [DFO, Deferoxamine mesylate], the cell cycle arrest (DLD-1 cells [1]) is reported as “induced cell cycle arrest in the S phase”, the cell proliferation suppression (DLD-1 cells [2]) is reported as “significantly suppressed the proliferation” and the “blood retention (in words)” value [3] is reported as “rapid disappearance from the blood; also recorded: disappeared from the blood at an early stage”. The “free iron in the cytoplasm (FerroOrange fluorescence)” value (DLD-1 cells [4]) was “markedly decreased free iron in the cytoplasm”, the “DNA synthesis inhibition (BrdU uptake)” value (DLD-1 cells [5]) was “BrdU uptake was significantly suppressed” and the “proportion of apoptotic and necrotic cells” value (DLD-1 cells [6]) was “significantly increased the proportion of apoptotic and necrotic cells”. For the same molecule, the “half-life of the in-blood concentration” value [7] was at most 20 min and the “cell proliferation suppressive effect” value [8] was “cell proliferation suppressive effect through cell cycle arrest”.
